SMILES strings stand for the structures. Values joined by “and” are separate entries in the source; they are usually repeats but may differ in a detail not shown here. Equal entries are not always repeated. Toxic doses and inconclusive results are not listed.

This is an account of results in PubChem BioAssay AID330 (DTP/NCI, 2004).

This assay concerns P388 leukemia ip, CD2F1 mice, survival T/C. The assay is described as follows: NCI In Vivo Anticancer Drug Screen. Data for tumor model P388 Leukemia (intraperitoneal) in CD2F1 (CDF1) mice. The conditions noted are these: endpoint: median survival time, higher = longer survival. Summed up:
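Mice carrying the transplanted tumor received test compound or vehicle. Survival was recorded in each group, and the value is the treated-group measurement divided by that of the vehicle-treated control group.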

Setting [1] is: dose: 60.0 mg/kg/injection, schedule: Q01DX005 (ip), vehicle: saline with Tween-80.
The mark [2] stands for this setting: dose: 120.0 mg/kg/injection, schedule: Q01DX005 (ip), vehicle: saline with Tween-80.
Where [3] appears, read: dose: 30.0 mg/kg/injection, schedule: Q01DX005 (ip), vehicle: saline with Tween-80.
Setting [4] is: dose: 50.0 mg/kg/injection, schedule: Q01DX005 (ip), vehicle: saline with Tween-80.
Setting [5] is: dose: 50.0 mg/kg/injection, schedule: Q01DX009 (ip), vehicle: saline with Tween-80.
Setting [6] is: dose: 100.0 mg/kg/injection, schedule: Q01DX009 (ip), vehicle: saline with Tween-80.
[7] abbreviates: dose: 200.0 mg/kg/injection, schedule: Q01DX009 (ip), vehicle: saline with Tween-80.
Where [8] appears, read: dose: 400.0 mg/kg/injection, schedule: Q01DX009 (ip), vehicle: saline with Tween-80.
Setting [9] is: dose: 50.0 mg/kg/injection, schedule: Q01DX005 (ip), vehicle: Klucel (hydroxypropylcellulose) (HPC).
Setting [10] is: dose: 100.0 mg/kg/injection, schedule: Q01DX005 (ip), vehicle: Klucel (hydroxypropylcellulose) (HPC).

As for `Cc1ccc(NC(=O)NCc2ccncc2)cc1NC(=O)NCc1ccncc1`, the T/C is, setting by setting: (dose: 50.0 mg/kg/injection, schedule: Q01DX009 (ip), vehicle: Klucel (hydroxypropylcellulose) (HPC)) 112 % of control; (dose: 100.0 mg/kg/injection, schedule: Q01DX009 (ip), vehicle: Klucel (hydroxypropylcellulose) (HPC)) 110 % of control.

For `CC(C)(C)C1NC(C(C)(C)C)N2C(C(C)(C)C)N12` (centres undefined), the T/C was 100 % of control (dose: 100.0 mg/kg/injection, schedule: Q01DX001 (ip), vehicle: Klucel (hydroxypropylcellulose) (HPC)); 90 % of control (dose: 200.0 mg/kg/injection, schedule: Q01DX001 (ip), vehicle: Klucel (hydroxypropylcellulose) (HPC)); 102 % of control (dose: 400.0 mg/kg/injection, schedule: Q01DX001 (ip), vehicle: Klucel (hydroxypropylcellulose) (HPC)).

With `Cc1ccc(NC(=O)/C=C2\CONC(c3ccccc3)=N2)cc1`, the T/C by setting is: under setting [1], 91 % of control; under setting [2], 91 % of control.

As for `CC(C)(C)c1ccc(N)c(C(O)(C(F)(F)F)C(F)(F)F)c1`, the T/C under setting [3] was 100 % of control and 90 % of control.

Turning to `CC(C(=O)O)C(Nc1ncnc2c1ncn2C1OC(CO)C(O)C1O)C(=O)O` (centres undefined), the T/C runs as follows: (dose: 100.0 mg/kg/injection, schedule: Q04DX003 (ip), vehicle: saline) 98 % of control; (dose: 200.0 mg/kg/injection, schedule: Q04DX003 (ip), vehicle: saline) 100 % of control; (dose: 400.0 mg/kg/injection, schedule: Q04DX003 (ip), vehicle: saline) 98 % of control.

As to `O=C(NCc1ccco1)Nc1cccc2c(NC(=O)NCc3ccco3)cccc12`, the T/C under setting [3] is 100 % of control; the T/C under setting [1] was 97 % of control; the T/C under setting [2] was 90 % of control; the T/C (dose: 240.0 mg/kg/injection, schedule: Q01DX005 (ip), vehicle: saline with Tween-80) was 86 % of control.

For `CC(=O)C1(O)CCCC(OC2CC(N)C(O)C(C)O2)C1` (centres undefined), the T/C (dose: 6.25 mg/kg/injection, schedule: Q01DX009 (ip), vehicle: water) is 100 % of control; the T/C (dose: 12.5 mg/kg/injection, schedule: Q01DX009 (ip), vehicle: water) was 95 % of control; the T/C (dose: 25.0 mg/kg/injection, schedule: Q01DX009 (ip), vehicle: water) was 104 % of control; the T/C (dose: 50.0 mg/kg/injection, schedule: Q01DX009 (ip), vehicle: water) was 113 % of control; the T/C (dose: 100.0 mg/kg/injection, schedule: Q01DX009 (ip), vehicle: water) is 113 % of control.

For `CCC(c1ccc(OCCS(=O)(=O)Oc2ccc(C)cc2)cc1)C(CC)c1ccc(OCCS(=O)(=O)Oc2ccc(C)cc2)cc1` (centres undefined), the T/C is 106 % of control (dose: 50.0 mg/kg/injection, schedule: Q01DX009 (ip), vehicle: saline); 87 % of control (dose: 100.0 mg/kg/injection, schedule: Q01DX009 (ip), vehicle: saline); 95 % of control (dose: 200.0 mg/kg/injection, schedule: Q01DX009 (ip), vehicle: saline).

`S=C(NCc1ccccc1)NNc1nnc(-c2ccccc2)c(-c2ccccc2)n1`: the T/C was 96 % of control (dose: 12.5 mg/kg/injection, schedule: Q01DX005 (ip), vehicle: saline with Tween-80); 94 % of control (dose: 25.0 mg/kg/injection, schedule: Q01DX005 (ip), vehicle: saline with Tween-80); 91 % of control under setting [4].

With `CC(C)[NH-].CC(C)[NH-].[Cl][Pt+2]([Cl])([Cl])[Cl]`, the T/C reads like this: (dose: 22.0 mg/kg/injection, schedule: Q01DX009 (ip), vehicle: saline with Tween-80) 155 % of control; (dose: 33.0 mg/kg/injection, schedule: Q01DX009 (ip), vehicle: saline with Tween-80) 165 % of control; under setting [5], 152 % of control.

Turning to `Nc1ccc(S(=O)(=O)Nc2nc(-c3ccccc3)cc(-c3ccccc3O)n2)cc1`, the T/C reads like this: under setting [1], 96 % of control; under setting [2], 96 % of control.

Take `O=C(CCl)N/N=C(\Cc1ccccc1)c1ccccc1`: the T/C is 97 % of control under setting [6], 98 % of control under setting [7] and 103 % of control under setting [8].

`CCNC(=O)OCc1c(C)nc2n1CCS2`: the T/C was 115 % of control under setting [9] and 112 % of control under setting [10].

On to `O=C1OC(c2ccc(O)cc2)(c2ccc(O)cc2)c2ccccc21`, for which the T/C (dose: 100.0 mg/kg/injection, schedule: Q04DX002 (ip), vehicle: saline with Tween-80) was 99 % of control; the T/C (dose: 200.0 mg/kg/injection, schedule: Q04DX002 (ip), vehicle: saline with Tween-80) is 103 % of control; the T/C (dose: 400.0 mg/kg/injection, schedule: Q04DX002 (ip), vehicle: saline with Tween-80) was 93 % of control.

As for `c1ccc2c(c1)Nc1ncccc1S2`, the T/C runs as follows: under setting [5], 99 % of control and 94 % of control; under setting [6], 92 % of control and 95 % of control; under setting [7], 107 % of control and 92 % of control; under setting [8], 108 % of control.

With `O=C(Nc1c[nH]c(=O)[nH]c1=O)C(Cl)Cl`, the T/C by setting is: (dose: 3.12 mg/kg/injection, schedule: Q01DX009 (ip), vehicle: saline) 93 % of control; (dose: 6.25 mg/kg/injection, schedule: Q01DX009 (ip), vehicle: saline) 97 % of control; (dose: 12.5 mg/kg/injection, schedule: Q01DX009 (ip), vehicle: saline) 101 % of control; (dose: 25.0 mg/kg/injection, schedule: Q01DX009 (ip), vehicle: saline) 100 % of control.

Turning to `CNc1ccc2c(cc1=O)C(NC(C)=O)CCc1cc(OC)c(OC)c(OC)c1-2` (centres undefined), the T/C was 157 % of control (dose: 0.08 mg/kg/injection, schedule: Q01DX009 (ip), vehicle: Klucel (hydroxypropylcellulose) (HPC)); 157 % of control (dose: 0.12 mg/kg/injection, schedule: Q01DX009 (ip), vehicle: Klucel (hydroxypropylcellulose) (HPC)); 174 % of control (dose: 0.16 mg/kg/injection, schedule: Q01DX009 (ip), vehicle: Klucel (hydroxypropylcellulose) (HPC)); 150 % of control (dose: 0.25 mg/kg/injection, schedule: Q01DX009 (ip), vehicle: Klucel (hydroxypropylcellulose) (HPC)); 166 % of control (dose: 0.32 mg/kg/injection, schedule: Q01DX009 (ip), vehicle: Klucel (hydroxypropylcellulose) (HPC)).

`O=C(Nn1c(=O)[nH]c2ccccc2c1=O)c1ccc(Cl)cc1`: the T/C by setting is: (dose: 60.0 mg/kg/injection, schedule: Q01DX005 (ip), vehicle: Klucel (hydroxypropylcellulose) (HPC)) 98 % of control; (dose: 120.0 mg/kg/injection, schedule: Q01DX005 (ip), vehicle: Klucel (hydroxypropylcellulose) (HPC)) 93 % of control; (dose: 240.0 mg/kg/injection, schedule: Q01DX005 (ip), vehicle: Klucel (hydroxypropylcellulose) (HPC)) 90 % of control.

For `CCCCNC(=S)S`, the T/C reads like this: under setting [6], 109 % of control; under setting [7], 109 % of control; under setting [8], 104 % of control.

For `CCCNNC(N)=S`, the T/C was 105 % of control (dose: 12.5 mg/kg/injection, schedule: Q01DX009 (ip), vehicle: other) and 105 % of control (dose: 25.0 mg/kg/injection, schedule: Q01DX009 (ip), vehicle: other).

As for `O=C1NC(=O)C2(CCCc3ccccc32)N1` (centres undefined), the T/C was 101 % of control under setting [9]; 97 % of control under setting [4]; 104 % of control under setting [10]; 94 % of control (dose: 100.0 mg/kg/injection, schedule: Q01DX005 (ip), vehicle: saline with Tween-80); 104 % of control (dose: 200.0 mg/kg/injection, schedule: Q01DX005 (ip), vehicle: Klucel (hydroxypropylcellulose) (HPC)); 94 % of control (dose: 200.0 mg/kg/injection, schedule: Q01DX005 (ip), vehicle: saline with Tween-80).

As for `[NH-]C(CCC(N)=O)C(=O)O.[NH-]C(CCCN=C(N)N)C(=O)O.[Zn+2]` (centres undefined), the T/C (dose: 25.0 mg/kg/injection, schedule: Q01DX005 (ip), vehicle: saline) is 100 % of control and 106 % of control; the T/C (dose: 50.0 mg/kg/injection, schedule: Q01DX005 (ip), vehicle: saline) was 103 % of control and 106 % of control; the T/C (dose: 100.0 mg/kg/injection, schedule: Q01DX005 (ip), vehicle: saline) is 110 % of control and 119 % of control.
